Measurements as given in ChEMBL document CHEMBL3600360, “Fluorescent photoaffinity probes for mitotic protein kinase Aurora A” (Bioorg Med Chem Lett, 2015).
The source made the active and inactive calls. The calls are words filed in the database; no cut-off is given here.

Assays:
[1] = molecular target: T1, Aurora kinase A (Homo sapiens) (UniProt O14965); assay: Binding affinity to purified recombinant full-length Aurora A (unknown origin) assessed as covalent irreversible complex formation at 1.2 uM irradiated for 30 mins with near-UV light by SDS-PAGE and Western blot method
T1 sequence (whole entry): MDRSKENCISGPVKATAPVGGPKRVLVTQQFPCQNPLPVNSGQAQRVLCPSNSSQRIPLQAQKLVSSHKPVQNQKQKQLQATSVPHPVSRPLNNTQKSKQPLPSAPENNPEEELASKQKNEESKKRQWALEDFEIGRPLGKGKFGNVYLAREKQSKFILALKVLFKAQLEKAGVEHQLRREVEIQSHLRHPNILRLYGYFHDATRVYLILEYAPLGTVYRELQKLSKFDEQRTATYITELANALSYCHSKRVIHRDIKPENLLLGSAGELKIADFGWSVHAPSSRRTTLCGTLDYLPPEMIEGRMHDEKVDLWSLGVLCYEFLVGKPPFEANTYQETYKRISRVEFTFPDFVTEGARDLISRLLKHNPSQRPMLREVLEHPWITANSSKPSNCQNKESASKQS

[2] = molecular target: T1, Aurora kinase A (Homo sapiens); assay: Binding affinity to purified recombinant full-length Aurora A (unknown origin) assessed as covalent irreversible complex formation at 1.2 uM irradiated for 15 mins with near-UV light in presence of TPX2 by SDS-PAGE and Western blot method
[3] = molecular target: T1, Aurora kinase A (Homo sapiens); assay: Inhibition of purified recombinant full-length Aurora A (unknown origin) assessed as residual enzyme activity at 2 mM using kemptide analogue substrate and 5 mM ATP in presence of TPX2 (1 to 43 residues)
Aurora kinase A = molecular target: T2, Aurora kinase A (Homo sapiens, UniProt O14965); assay: Binding affinity to purified recombinant full-length Aurora A (unknown origin) by fluorescence polarisation/anisotropy based equilibrium binding assay
T2 sequence (O14965 whole entry): T1 sequence (whole entry)

[4] = molecular target: T1, Aurora kinase A (Homo sapiens); assay: Binding affinity to Aurora A in human HeLa cells assessed as covalent irreversible complex formation at 1 uM irradiated for 15 mins with near-UV light in presence of Aurora A inhibitor MLN8237 by SDS-PAGE and Western blot method; type: cell-based
[5] = molecular target: T1, Aurora kinase A (Homo sapiens); assay: Binding affinity to purified recombinant full-length Aurora A (unknown origin) assessed as covalent irreversible complex formation at 2.4 uM irradiated for 15 mins with near-UV light by SDS-PAGE and Western blot method
[6] = molecular target: T1, Aurora kinase A (Homo sapiens); assay: Binding affinity to 1 uM and >100 uM VX689-prre-treated purified recombinant full-length Aurora A (unknown origin) assessed as covalent irreversible complex formation at 1 uM irradiated for 15 mins with near-UV light by SDS-PAGE and Western blot method
[7] = molecular target: T1, Aurora kinase A (Homo sapiens); assay: Binding affinity to Aurora A in human HeLa cells assessed as covalent irreversible complex formation at 1 uM irradiated for 15 mins with near-UV light by SDS-PAGE and Western blot method; type: cell-based
[8] = molecular target: T1, Aurora kinase A (Homo sapiens); assay: Binding affinity to purified recombinant full-length Aurora A (unknown origin) assessed as covalent irreversible complex formation at 2.4 uM irradiated for 15 mins with near-UV light in presence of TPX2 by SDS-PAGE and Western blot method
[9] = molecular target: T1, Aurora kinase A (Homo sapiens); assay: Binding affinity to purified recombinant full-length Aurora A (unknown origin) assessed as covalent irreversible complex formation at 4.8 uM irradiated for 15 mins with near-UV light using 200 nM Aurora A by SDS-PAGE and Western blot method

| Activity [1] [%] | Activity [2] | Activity [3] [%] | Kd (Aurora kinase A) [nM] | Activity [4] | Activity [5] [%] | Activity [6] | Activity [7] | Activity [8] | Activity [9] | SMILES |
| --- | --- | --- | --- | --- | --- | --- | --- | --- | --- | --- |
| – | – | 74 | 6.1 | inactive | 15 | inactive | Active | – | – | CCN1/C(=C/C=C/C2=[N+](CC)c3ccc(S(=O)(=O)O)cc3C2(C)C)C(C)(CCCC(=O)NCCCC[C@@H](NC(=O)[C@H](CCCNC(=N)N)NC(=O)[C@H](CCCNC(=N)N)NC(=O)[C@H](CCCNC(=N)N)NC(=O)[C@H](CCCNC(=N)N)NC(=O)[C@H](CCCNC(=N)N)NC(=O)[C@H](CCCNC(=N)N)NC(=O)[C@@H](Cc2ccc(N=[N+]=[N-])cc2)NC(=O)[C@@H](Cc2ccc(N=[N+]=[N-])cc2)NC(=O)CCNC(=O)[C@]2(Cc3cccc(Nc4nccs4)n3)CC[C@@H](Oc3cccc(Cl)c3F)CC2)C(N)=O)c2cc(S(=O)(=O)O)ccc21 (some centres not stated) |
| – | – | 100 | 9.1 | – | 8.1 | – | – | – | – | CCN1/C(=C/C=C/C2=[N+](CC)c3ccc(S(=O)(=O)O)cc3C2(C)C)C(C)(CCCC(=O)NCCCC[C@@H](NC(=O)[C@@H](CCCNC(=N)N)NC(=O)[C@@H](CCCNC(=N)N)NC(=O)[C@@H](CCCNC(=N)N)NC(=O)[C@@H](CCCNC(=N)N)NC(=O)[C@@H](CCCNC(=N)N)NC(=O)[C@@H](CCCNC(=N)N)NC(=O)[C@H](Cc2ccc(C(=O)c3ccccc3)cc2)NC(=O)[C@H](Cc2ccc(C(=O)c3ccccc3)cc2)NC(=O)CCCNC(=O)[C@]2(Cc3cccc(Nc4nccs4)n3)CC[C@@H](Oc3cccc(Cl)c3F)CC2)C(N)=O)c2cc(S(=O)(=O)O)ccc21 (some centres not stated) |
| – | – | 110 | 6.5 | – | 6.9 | – | – | – | – | CCN1/C(=C/C=C/C2=[N+](CC)c3ccc(S(=O)(=O)O)cc3C2(C)C)C(C)(CCCC(=O)NCCCC[C@@H](NC(=O)[C@@H](CCCNC(=N)N)NC(=O)[C@@H](CCCNC(=N)N)NC(=O)[C@@H](CCCNC(=N)N)NC(=O)[C@@H](CCCNC(=N)N)NC(=O)[C@@H](CCCNC(=N)N)NC(=O)[C@@H](CCCNC(=N)N)NC(=O)[C@@H](Cc2ccc(C(=O)c3ccccc3)cc2)NC(=O)[C@@H](Cc2ccc(C(=O)c3ccccc3)cc2)NC(=O)CCCNC(=O)[C@]2(Cc3cccc(Nc4nccs4)n3)CC[C@@H](Oc3cccc(Cl)c3F)CC2)C(N)=O)c2cc(S(=O)(=O)O)ccc21 (some centres not stated) |
| – | – | 67 | – | – | – | – | – | – | – | O=C(O)[C@]1(Cc2cccc(Nc3nccs3)n2)CC[C@@H](Oc2cccc(Cl)c2F)CC1 |
| – | – | 10 | – | – | – | – | – | – | – | N=C(N)NCCC[C@@H](NC(=O)[C@@H](CCCNC(=N)N)NC(=O)[C@@H](CCCNC(=N)N)NC(=O)[C@@H](CCCNC(=N)N)NC(=O)[C@@H](CCCNC(=N)N)NC(=O)[C@@H](CCCNC(=N)N)NC(=O)CCCCCNC(=O)[C@]1(Cc2cccc(Nc3nccs3)n2)CC[C@@H](Oc2cccc(Cl)c2F)CC1)C(N)=O |

Continued, compound first:

| SMILES | Activity [1] [%] | Activity [2] | Activity [3] [%] | Kd (Aurora kinase A) [nM] | Activity [4] | Activity [5] [%] | Activity [6] | Activity [7] | Activity [8] | Activity [9] |
| --- | --- | --- | --- | --- | --- | --- | --- | --- | --- | --- |
| CN(C)c1ccc2c(-c3ccc(C(=O)NCCCC[C@H](NC(=O)[C@H](Cc4ccccc4)NC(=O)[C@H](Cc4ccccc4)NC(=O)CCCNC(=O)[C@]4(Cc5cccc(Nc6nccs6)n5)CC[C@@H](Oc5cccc(Cl)c5F)CC4)C(N)=O)cc3C(=O)O)c3ccc(=[N+](C)C)cc-3oc2c1 | 1.5 | Active | 110 | 0.44 | – | – | – | – | – | – |
| CN(C)c1ccc2c(-c3ccc(C(=O)NCCCOCCOCCOCCCNC(=O)[C@@H](Cc4ccc(N=[N+]=[N-])cc4)NC(=O)CCNC(=O)[C@]4(Cc5cccc(Nc6nccs6)n5)CC[C@@H](Oc5cccc(Cl)c5F)CC4)cc3C(=O)O)c3ccc(=[N+](C)C)cc-3oc2c1 | 20 | – | 73 | 2.2 | – | – | inactive | – | – | – |
| CN(C)c1ccc2c(-c3ccc(C(=O)NCCCC[C@H](NC(=O)[C@H](Cc4ccc(C(=O)c5ccccc5)cc4)NC(=O)[C@H](Cc4ccc(C(=O)c5ccccc5)cc4)NC(=O)CCCNC(=O)[C@]4(Cc5cccc(Nc6nccs6)n5)CC[C@@H](Oc5cccc(Cl)c5F)CC4)C(N)=O)cc3C(=O)O)c3ccc(=[N+](C)C)cc-3oc2c1 | 9 | Active | 100 | – | Active | – | – | Active | – | – |
| CCN1/C(=C/C=C/C2=[N+](CC)c3ccc(S(=O)(=O)O)cc3C2(C)C)C(C)(CCCC(=O)NCCCC[C@@H](NC(=O)[C@@H](CCCNC(=N)N)NC(=O)[C@@H](CCCNC(=N)N)NC(=O)[C@@H](CCCNC(=N)N)NC(=O)[C@@H](CCCNC(=N)N)NC(=O)[C@@H](CCCNC(=N)N)NC(=O)[C@@H](CCCNC(=N)N)NC(=O)[C@H](Cc2ccc(N=[N+]=[N-])cc2)NC(=O)[C@H](Cc2ccc(N=[N+]=[N-])cc2)NC(=O)CCNC(=O)[C@]2(Cc3cccc(Nc4nccs4)n3)CC[C@@H](Oc3cccc(Cl)c3F)CC2)C(N)=O)c2cc(S(=O)(=O)O)ccc21 (some centres not stated) | – | – | 71 | 5.7 | inactive | 18 | inactive | Active | – | – |
| CCN1/C(=C/C=C/C2=[N+](CC)c3ccc(S(=O)(=O)O)cc3C2(C)C)C(C)(CCCC(=O)NCCCC[C@@H](NC(=O)[C@@H](CCCNC(=N)N)NC(=O)[C@@H](CCCNC(=N)N)NC(=O)[C@@H](CCCNC(=N)N)NC(=O)[C@@H](CCCNC(=N)N)NC(=O)[C@@H](CCCNC(=N)N)NC(=O)[C@@H](CCCNC(=N)N)NC(=O)[C@@H](Cc2ccc(N=[N+]=[N-])cc2)NC(=O)[C@@H](Cc2ccc(N=[N+]=[N-])cc2)NC(=O)CCNC(=O)[C@]2(Cc3cccc(Nc4nccs4)n3)CC[C@@H](Oc3cccc(Cl)c3F)CC2)C(N)=O)c2cc(S(=O)(=O)O)ccc21 (stereo in doubt) | – | – | 96 | 2.5 | – | 11 | inactive | – | – | – |
| CN(C)c1ccc2c(-c3ccc(C(=O)NCCCC[C@H](NC(=O)[C@H](Cc4ccc(N=[N+]=[N-])cc4)NC(=O)[C@H](Cc4ccc(N=[N+]=[N-])cc4)NC(=O)CCCNC(=O)[C@]4(Cc5cccc(Nc6nccs6)n5)CC[C@@H](Oc5cccc(Cl)c5F)CC4)C(N)=O)cc3C(=O)O)c3ccc(=[N+](C)C)cc-3oc2c1 | – | – | 100 | 1.9 | Active | 40 | inactive | Active | Active | inactive |
| CCN1/C(=C/C=C/C2=[N+](CC)c3ccc(S(=O)(=O)O)cc3C2(C)C)C(C)(CCCC(=O)NCCCC[C@@H](NC(=O)[C@H](CCCNC(=N)N)NC(=O)[C@H](CCCNC(=N)N)NC(=O)[C@H](CCCNC(=N)N)NC(=O)[C@H](CCCNC(=N)N)NC(=O)[C@H](CCCNC(=N)N)NC(=O)[C@H](CCCNC(=N)N)NC(=O)[C@H](Cc2ccc(C(=O)c3ccccc3)cc2)NC(=O)[C@H](Cc2ccc(C(=O)c3ccccc3)cc2)NC(=O)CCCNC(=O)[C@]2(Cc3cccc(Nc4nccs4)n3)CC[C@@H](Oc3cccc(Cl)c3F)CC2)C(N)=O)c2cc(S(=O)(=O)O)ccc21 (some centres not stated) | – | – | 100 | – | – | 8.5 | – | – | – | – |
